Data: patent publication US20150038545A1, “HYDROXYPHENYL PYRROLE COMPOUNDS CONTAINING AN HYDROXAMIC ACID AS HDAC INHIBITORS AND MEDICINAL APPLICATIONS THEREOF” (UNIVERSIDAD DEL PAÍS VASCO, priority 2011, published 2015)

Assays:
[1] = target: T1, Human HDAC4 (Homo sapiens, UniProt P56524); experiment: In vitro HDAC4 inhibition, fluorogenic peptide assay; format: biochemical; details: for IC50: read-out: IC50 (nM) of enzyme activity HDAC4
T1 construct: Amino acids 627-1085 with N-terminal GST tag, MW=75.2 kDa; GST (N); purchased BioMol, Hamburg, Germany
Procedure: (§1) All HDAC assays were performed using acetylated AMC-labeled peptide substrate: • Substrate for isoforms HDAC1, 2, 3, 4, 5, 6, 7, 9, 10, 11 and HeLa nuclear extract assays: Acetylated fluorogenic peptide from p53 residues 379-382 (RHKKAc) (BioMol. Cat. # KI-104). • Substrate for HDAC8 assays: Acetylated fluorogenic peptide from p53 residues 379-382 (RHKAcKAc) (BioMol. Cat. # KI-178).
(§2) Enzymes: • HDAC1 assay: 75 nM Human HDAC1 (GenBank Accession No. NM_004964): Full length with C-terminal GST tag, MW=79.9 kDa, expressed by baculovirus expression system in Sf9 cells (BioMol. Cat. # SE-456). • HDAC2 assay: 5 nM Human HDAC2 (GenBank Accession No. Q92769): Full length with C-terminal His tag, MW=60 kDa, expressed by baculovirus expression system in Sf9 cells (BioMol. Cat. # SE-500). • HDAC3 assay: 2.3 nM Human HDAC3/NcoR2 (GenBank Accession No. NM_003883 for HDAC3, GenBank Accession No.NM_006312 for NcoR2): Complex of human HDAC3, full length with C-terminal His tag, MW=49.7 kDa, and human NCOR2, N-terminal GST tag, MW=39 kDa, co-expressed in baculovirus expression system (BioMol. Cat. # SE-507). • HDAC4 assay: 266 nM Human HDAC4 (GenBank Accession No. NM_006037): Amino acids 627-1085 with N-terminal GST tag, MW=75.2 kDa, expressed in baculovirus expression system (BioMol, Hamburg, Germany). • HDAC5 assay: 588 nM Human HDAC5 (GenBank Accession No. NM_001015053): Full length with Nterminal GST tag, MW=150 kDa, expressed by baculovirus expression system in Sf9 cells (BioMol, Hamburg, Germany). • HDAC6 assay: 13 nM Human HDAC6 (GenBank Accession No. BC069243): Full length with N-terminal GST tag, MW=159 kDa, expressed by baculovirus expression system in Sf9 cells (BioMol. Cat. # SE-508). • HDAC7 assay: 962 nM Human HDAC7 (GenBank Accession No. AY302468): Amino acids 518-end with N-terminal GST tag, MW=78 kDa, expressed in baculovirus expression system (BioMol, Hamburg, Germany). • HDAC8 assay: 119 nM Human HDAC8 (GenBank Accession No. NM018486): Full length, MW=42 kDa, expressed in an E. coli expression system (BioMol. […]
(§3) The reactions were carried out in a 96-well microplate for fluorometry in a 50 μl reaction volume. […] The reaction was allowed to develop for 45 minutes at 30° C. with 5% CO2; then the fluorescent signal was measured with an excitation wavelength at 360 nm and an emission wavelength at 460 nm in a microplate-reading fluorometer (GeminiXS; Molecular Devices, Sunnyvale, Calif.). […] IC50 was calculated by fitting the experimental data to a dose-response curve. […]

[2] = target: T2, Human HDAC7 (Homo sapiens, UniProt Q8WUI4); experiment: In vitro HDAC7 inhibition, fluorogenic peptide assay; format: biochemical; details: for IC50: read-out: IC50 (nM) of enzyme activity HDAC7
T2 construct: Amino acids 518-end with N-terminal GST tag, MW=78 kDa; GST (N); purchased BioMol, Hamburg, Germany
T2 sequence (Q8WUI4 518-952 limits assumed): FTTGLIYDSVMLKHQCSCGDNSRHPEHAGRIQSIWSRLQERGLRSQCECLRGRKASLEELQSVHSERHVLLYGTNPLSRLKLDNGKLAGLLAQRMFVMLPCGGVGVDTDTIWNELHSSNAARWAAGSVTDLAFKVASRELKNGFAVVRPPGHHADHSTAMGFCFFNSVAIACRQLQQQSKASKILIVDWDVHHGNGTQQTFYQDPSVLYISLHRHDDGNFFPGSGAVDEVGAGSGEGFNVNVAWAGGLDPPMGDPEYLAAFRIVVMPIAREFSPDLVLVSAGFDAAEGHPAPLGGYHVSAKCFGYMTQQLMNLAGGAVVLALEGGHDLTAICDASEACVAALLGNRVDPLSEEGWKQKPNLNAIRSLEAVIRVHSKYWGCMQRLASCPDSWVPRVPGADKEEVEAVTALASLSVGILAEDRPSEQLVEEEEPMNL
Procedure: as §1, §2, §3

T1 sequence (P56524 627-1084 limits assumed): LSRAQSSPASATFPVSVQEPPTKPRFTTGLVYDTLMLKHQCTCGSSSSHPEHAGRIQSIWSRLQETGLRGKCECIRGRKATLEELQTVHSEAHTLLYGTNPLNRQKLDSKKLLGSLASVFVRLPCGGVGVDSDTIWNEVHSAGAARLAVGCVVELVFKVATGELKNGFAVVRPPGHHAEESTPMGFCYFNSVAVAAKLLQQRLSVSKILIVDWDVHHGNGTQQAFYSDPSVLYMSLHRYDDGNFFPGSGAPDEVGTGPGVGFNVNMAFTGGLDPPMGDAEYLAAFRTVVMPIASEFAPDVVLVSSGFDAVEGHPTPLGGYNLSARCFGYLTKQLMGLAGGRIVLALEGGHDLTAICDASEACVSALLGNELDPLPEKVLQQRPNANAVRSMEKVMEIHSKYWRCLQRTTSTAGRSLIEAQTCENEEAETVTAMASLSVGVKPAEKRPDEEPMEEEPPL

COc1ccc(-c2cc(-c3ccccc3)[nH]c2C(=O)NCCCCCC(=O)NO)cc1 [Compound A, N-[6-(hydroxyamino)-6-oxohexyl]-3-(4-methoxyphenyl)-5-phenyl-1H-pyrrole-2-carboxamide, reference compound]
Selectivity against HDAC6 (IC50 HDACx/IC50 HDAC6) HDAC4 ([1]; IC50 HDAC4/IC50 HDAC6): 91.9
IC50 [1]: 1840 nM
Selectivity against HDAC6 (IC50 HDACx/IC50 HDAC6) HDAC7 ([2]; IC50 HDAC7/IC50 HDAC6): 70.3
IC50 [2]: 1410 nM

O=C(CCCCCNC(=O)c1[nH]c(-c2ccc(O)cc2)cc1-c1ccoc1)NO [Example 5, 3-(3-furyl)-N-(5-(hydroxycarbamoyl)pentyl)-5-(4-hydroxy-phenyl)-1H-pyrrole-2-carboxamide]
IC50 [1]: 143 nM
IC50 [2]: 72 nM

O=C(CCCCCNC(=O)c1[nH]c(-c2ccc(O)cc2)cc1-c1ccsc1)NO [Example 6, N-(5-(hydroxycarbamoyl)pentyl)-5-(4-hydroxyphenyl)-3-(3-thienyl)-1H-pyrrole-2-carboxamide]
IC50 [1]: 499 nM
IC50 [2]: 318 nM
